Values joined by “and” are separate entries in the source; they are usually repeats but may differ in a detail not shown here. Identical values can stand only once.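 Tested at 5 concentrations; 48 h exposure; 96-well plates; endpoints linearly interpolated, else capped at highest concentration. Here, GI50 denotes the concentration required for 50% inhibition of growth. TGI denotes the concentration required for complete inhibition of growth.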
Key:
Assay in all cases: DTP human tumour cell line panel, 48 h
T-47D breast = tested on: T-47D breast
DLD-1 colon = tested on: DLD-1 colon
DMS 114 small cell lung = tested on: DMS 114 small cell lung
DMS 273 small cell lung = tested on: DMS 273 small cell lung
HOP-18 NSCLC = tested on: HOP-18 NSCLC
KM20L2 colon = tested on: KM20L2 colon
RXF-631 renal = tested on: RXF-631 renal
XF 498 CNS = tested on: XF 498 CNS
MDA-N = tested on: MDA-N

`COc1ccc(OC)c(/C=C/C(=O)c2ccc3cc(OC)ccc3c2)c1` showed a GI50 (T-47D breast) of 0.811 µM and a TGI (T-47D breast) of 3.33 µM.

`CC1(C)N=C(N)N=C(N)N1c1ccc(CCC(=O)Nc2cccc(S(=O)(=O)F)c2)cc1` gave a GI50 (T-47D breast) of 68.7 µM and a TGI (T-47D breast) greater than 100 µM.

Work on `O=S1Cc2ccccc2CSS1` (stereo not drawn) yielded a TGI (DLD-1 colon) of 41.1 µM, a TGI (DMS 114 small cell lung) of 34.6 µM and a TGI (DMS 273 small cell lung) of 24.1 µM. The TGI (HOP-18 NSCLC) was 89.1 µM, the TGI (KM20L2 colon) was 41.9 µM and the TGI (RXF-631 renal) was 48.5 µM. For the same molecule, the TGI (XF 498 CNS) was 34 µM.

With `C=C1C(OCCO)OC2O[C@]3(C)CCC4[C@H](C)CCC1C24OO3` (stereo partly drawn) the GI50 (MDA-N) was 14.8 µM, the TGI (MDA-N) was 87.9 µM and the GI50 (T-47D breast) was 1.56 µM. For the same molecule, the TGI (T-47D breast) was greater than 100 µM.

For `Nc1ncnc2c1ncn2C1OC(C(=O)OCCO)C(O)C1O` (stereo not drawn), the TGI (MDA-N) was greater than 100 µM and the TGI (T-47D breast) was greater than 100 µM.

Molecule `CC(=O)Nc1ccc(OCC(O)CO)cc1` (stereo not drawn) has a TGI (DLD-1 colon) of 54.1 µM, a TGI (DMS 273 small cell lung) greater than 100 µM and a TGI (HOP-18 NSCLC) greater than 100 µM. It also gave a TGI (KM20L2 colon) greater than 100 µM and a TGI (XF 498 CNS) greater than 100 µM.

For `Cn1c(=O)c2[nH]cnc2n(C)c1=O.[CH2-]C(Cc1cccc2cc(C(=O)O)c(=O)oc12)OC.[Hg+2].[OH-]` (stereo not drawn), the GI50 (MDA-N) was 17.2 µM, the TGI (MDA-N) was 30.9 µM and the GI50 (T-47D breast) was 18.9 µM. For the same molecule, the TGI (T-47D breast) was 63.5 µM.

For `Cc1ccc(SSCCCCS(=O)O)cc1`, the TGI (DLD-1 colon) was greater than 100 µM, the TGI (DMS 114 small cell lung) was 41.9 µM and the TGI (DMS 273 small cell lung) was 65.7 µM. It also gave a TGI (HOP-18 NSCLC) greater than 100 µM, a TGI (KM20L2 colon) of 46.9 µM and a TGI (RXF-631 renal) of 77.6 µM. The TGI (XF 498 CNS) was 32 µM.

With `NC(N)=N/N=C/c1ccc(Br)cc1` the GI50 (T-47D breast) was 5.57 µM and the TGI (T-47D breast) was 23.7 µM.

In the case of `O=C1C=C(OCC=C(Cl)Cl)C(=O)c2ccccc21`, the GI50 (T-47D breast) is reported as 2.4 µM and the TGI (T-47D breast) is reported as greater than 29.6 µM.

For `NS(=O)(=O)c1ccc(N=Nc2c(=O)[nH]c3ccc4[nH]cccc4c23)cc1`, the GI50 (T-47D breast) was 0.48 µM and the TGI (T-47D breast) was 1.98 µM.

`Cc1ccccc1NC(=O)CC(=O)n1nc(-c2ccccc2)c(N=Nc2ccc([N+](=O)[O-])cc2)c1-c1ccccc1` was tested, and the TGI (DLD-1 colon) was greater than 100 µM, the TGI (DMS 114 small cell lung) was 30.3 µM and the TGI (DMS 273 small cell lung) was 49.4 µM. For the same molecule, the TGI (HOP-18 NSCLC) was 87.8 µM, the TGI (KM20L2 colon) was 32.8 µM and the TGI (RXF-631 renal) was 41.6 µM. The TGI (XF 498 CNS) was 51.7 µM.

`CN1CCN(Cc2ccc(NC(=O)c3cncc(C#Cc4ncc5ccccn45)c3)cc2C(F)(F)F)CC1` showed a GI50 (T-47D breast) of 1.6 µM and a TGI (T-47D breast) of 6.76 µM.

Work on `C(=NCCN=Cc1cccc2ccccc12)c1cccc2ccccc12` yielded a TGI (DLD-1 colon) greater than 100 µM, a TGI (DMS 114 small cell lung) greater than 100 µM and a TGI (DMS 273 small cell lung) greater than 100 µM. For the same molecule, the TGI (HOP-18 NSCLC) was greater than 100 µM, the TGI (KM20L2 colon) was greater than 100 µM and the TGI (XF 498 CNS) was greater than 100 µM.

For `C#Cc1ccccc1N1C(=O)C=CC1=O`, the TGI (DLD-1 colon) was greater than 100 µM, the TGI (DMS 114 small cell lung) was greater than 100 µM and the TGI (KM20L2 colon) was greater than 100 µM.

Molecule `COc1cc[nH]c1/C=C1\C(=O)Nc2ccc([N+](=O)[O-])c(N3CC[C@@H](O)C3)c21` has a GI50 (T-47D breast) of 0.541 µM and a TGI (T-47D breast) of 3.8 µM.

For `CC1CC2(C)CC(=O)C1C1C(=O)N(CCN3CCOCC3)C(=O)C12` (stereo not drawn), the GI50 (T-47D breast) was greater than 100 µM and the TGI (T-47D breast) was greater than 100 µM.

For `O=C(CN1CCN(c2ccccn2)CC1)Nc1ccc(Cl)cc1C(=O)c1ccccc1Cl`, the GI50 (T-47D breast) was 3.89 µM and the TGI (T-47D breast) was greater than 100 µM.

In the case of `C=CC(=O)Nc1cccc(Nc2nc(Nc3ccc(N4CCN(C(C)=O)CC4)cc3OC)ncc2C(F)(F)F)c1`, the GI50 (T-47D breast) is reported as 1.88 µM and 3.92 µM and the TGI (T-47D breast) is reported as > 10 µM and 49.3 µM.

In the case of `ClCCCN1CCCCC1CCl` (stereo not drawn), the TGI (DLD-1 colon) is reported as greater than 100 µM, the TGI (DMS 114 small cell lung) is reported as greater than 100 µM and the TGI (DMS 273 small cell lung) is reported as greater than 100 µM. For the same molecule, the TGI (HOP-18 NSCLC) was greater than 100 µM and the TGI (KM20L2 colon) was greater than 100 µM.

`CCOc1ccccc1NC(=O)C(=O)c1c(O)c2ccc(O)cc2oc1=O` showed a TGI (DLD-1 colon) greater than 100 µM, a TGI (DMS 273 small cell lung) greater than 100 µM and a TGI (HOP-18 NSCLC) greater than 100 µM. It also gave a TGI (KM20L2 colon) greater than 100 µM and a TGI (RXF-631 renal) greater than 100 µM.

With `CC(=O)OC1(C#N)CC2OC1C1NC21` (stereo not drawn) the TGI (DLD-1 colon) was greater than 100 µM, the TGI (DMS 114 small cell lung) was greater than 100 µM and the TGI (KM20L2 colon) was greater than 100 µM. It also gave a TGI (RXF-631 renal) greater than 100 µM and a TGI (XF 498 CNS) greater than 100 µM.

Molecule `CN/N=C(/CC(=O)c1sc(NNC(C)=O)nc1C)C(=O)Nc1ccc(OC)cc1OC` has a TGI (DLD-1 colon) greater than 100 µM, a TGI (DMS 114 small cell lung) greater than 100 µM and a TGI (DMS 273 small cell lung) greater than 100 µM. The TGI (KM20L2 colon) was greater than 100 µM and the TGI (XF 498 CNS) was greater than 100 µM.

Work on `COc1c(OC2OC(CO)C(O)C(O)C2O)cc2c(c1OC)-c1ccc(OC)c(=O)cc1[C@@H](NC(C)=O)CC2` (stereo partly drawn) yielded a TGI (DLD-1 colon) greater than 100 µM, a TGI (DMS 114 small cell lung) greater than 97 µM and a TGI (DMS 273 small cell lung) greater than 100 µM. For the same molecule, the TGI (HOP-18 NSCLC) was greater than 100 µM, the TGI (KM20L2 colon) was greater than 100 µM and the TGI (RXF-631 renal) was greater than 100 µM. The TGI (XF 498 CNS) was greater than 93 µM.

`NCCNc1ncnc2ccc(Cl)cc12` gave a TGI (MDA-N) greater than 100 µM and a TGI (T-47D breast) greater than 100 µM.

`CNCC1CCn2c(c(C3=C(c4cn(C)c5ccccc45)C(=O)NC3=O)c3ccccc32)C1` (stereo not drawn) was tested, and the GI50 (T-47D breast) was 3.27 µM and the TGI (T-47D breast) was 7.27 µM.

For `CCCCCCCCCCCCCCCC(N)c1ccccc1` (stereo not drawn), the GI50 (T-47D breast) was 1.56 µM and the TGI (T-47D breast) was 3.08 µM.

For `NNC(=O)N/N=C1/C(=O)N(c2ccc(Cl)c(Cl)c2)C(=O)C(=O)C1c1nc2ccccc2o1` (stereo not drawn), the TGI (DLD-1 colon) was greater than 100 µM, the TGI (DMS 114 small cell lung) was greater than 100 µM and the TGI (DMS 273 small cell lung) was greater than 100 µM. The TGI (HOP-18 NSCLC) was greater than 100 µM, the TGI (KM20L2 colon) was greater than 100 µM and the TGI (RXF-631 renal) was greater than 100 µM.

`COc1ccc(-c2cc3c(N)ncnc3o2)cc1` showed a GI50 (T-47D breast) greater than 25 µM and a TGI (T-47D breast) greater than 25 µM.

`O=C(Nc1ccc(N2CCNCC2)cn1)c1[nH]ncc1Nc1ncnc2sc3c(c12)CCC3` was tested, and the GI50 (T-47D breast) was 1.65 µM and the TGI (T-47D breast) was 4.27 µM.

`CCC(=O)OCN1C(=O)C=CC1=O` showed a TGI (MDA-N) of 31.4 µM.

For `CC1=C(C(=O)NCc2ccccc2)C(c2ccccc2O)C(C(=O)NCc2ccccc2)=C(C)N1`, the TGI (DLD-1 colon) was 36 µM, the TGI (DMS 114 small cell lung) was 35.7 µM and the TGI (DMS 273 small cell lung) was 31.2 µM. It also gave a TGI (HOP-18 NSCLC) of 60.1 µM, a TGI (KM20L2 colon) of 37 µM and a TGI (XF 498 CNS) of 31.2 µM.

`COc1ccc(S(=O)(=O)N/N=C/CN2C(=O)c3ccccc3C2=O)cc1` gave a TGI (DLD-1 colon) greater than 100 µM, a TGI (DMS 273 small cell lung) greater than 100 µM and a TGI (KM20L2 colon) greater than 100 µM. For the same molecule, the TGI (XF 498 CNS) was greater than 100 µM.

Molecule `NC(N)=NC(N)=NCc1ccco1` has a GI50 (T-47D breast) greater than 1250 µM and a TGI (T-47D breast) greater than 1250 µM.

`Cc1ccc(NC(=O)CC2C(=O)Nc3ccccc3S2(=O)=O)cc1C` (stereo not drawn) showed a TGI (DLD-1 colon) greater than 100 µM, a TGI (DMS 114 small cell lung) greater than 100 µM and a TGI (DMS 273 small cell lung) greater than 100 µM. The TGI (KM20L2 colon) was greater than 100 µM, the TGI (RXF-631 renal) was greater than 100 µM and the TGI (XF 498 CNS) was greater than 100 µM.

Work on `CCOc1cc[n+](C(=C=[N-])C#N)cc1` yielded a TGI (DLD-1 colon) greater than 100 µM, a TGI (DMS 114 small cell lung) greater than 100 µM and a TGI (DMS 273 small cell lung) greater than 100 µM. For the same molecule, the TGI (KM20L2 colon) was greater than 100 µM, the TGI (RXF-631 renal) was greater than 100 µM and the TGI (XF 498 CNS) was greater than 100 µM.

Source: PubChem BioAssay (NCI)
